Where “and” joins values, the source holds several entries; their conditions need not be identical. Identical values can stand only once. Values belong to the compound of their own block, whether it stands above or below them.
Key:
ITK [1] = molecular target: T1, ITK (Homo sapiens, UniProt Q08881); assay: ITK degradation in DERL-2 cells (immunoblot); format: cell-based; parameters: endogenous in cells; host or cells: DERL-2 cells
T1 sequence (Q08881 1-620): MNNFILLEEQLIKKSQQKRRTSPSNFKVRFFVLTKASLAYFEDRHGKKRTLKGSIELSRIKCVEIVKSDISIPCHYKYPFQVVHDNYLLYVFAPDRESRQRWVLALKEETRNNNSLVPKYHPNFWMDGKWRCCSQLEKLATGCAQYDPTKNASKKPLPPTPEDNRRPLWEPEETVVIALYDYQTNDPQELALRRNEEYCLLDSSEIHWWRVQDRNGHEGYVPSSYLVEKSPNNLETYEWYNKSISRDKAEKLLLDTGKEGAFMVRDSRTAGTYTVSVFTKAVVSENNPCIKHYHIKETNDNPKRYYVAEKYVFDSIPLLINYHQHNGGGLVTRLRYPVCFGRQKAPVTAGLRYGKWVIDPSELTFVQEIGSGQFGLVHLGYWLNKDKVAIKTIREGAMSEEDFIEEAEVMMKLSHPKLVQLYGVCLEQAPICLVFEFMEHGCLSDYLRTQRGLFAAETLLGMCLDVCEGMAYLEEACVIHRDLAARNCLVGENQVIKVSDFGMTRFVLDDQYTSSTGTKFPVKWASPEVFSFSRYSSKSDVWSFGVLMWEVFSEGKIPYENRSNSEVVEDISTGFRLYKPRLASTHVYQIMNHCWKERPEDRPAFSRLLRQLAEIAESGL
Protocol: (§1) DERL-2 cells (hepatosplenic T-cell lymphoma) were treated with compound 1 for either 4 hours (FIG. 1A) or 18 hours (FIG. 1B) at the indicated doses. After treatment, DERL-2 cells were lysed in Cell Lysis Buffer (Cell Signaling Technology®) on ice for 30 minutes and lysates were clarified by centrifugation. Immunoblotting for ITK was performed to evaluate changes in protein levels upon ITK degrader treatment. All samples were run with equal total protein content and immunoblotting was performed using antibodies that detect total ITK protein as well as GAPDH as a loading control followed by washing and binding of horseradish peroxidase (HRP)-conjugated secondary antibodies. Blots were developed using SuperSignal™ Pico chemiluminescent substrate (Thermo Scientific).
as §1, with “cells” for “cells (hepatosplenic T-cell lymphoma)”, “compound 1, compound 2 or ITK inhibitor (BMS509744)” for “compound 1”, “for” for “for either 4 hours (FIG. 1A) or”, “(FIG. 2)” for “(FIG. 1B)”, “After 18 hours,” for “After treatment,”

ITK [2] = molecular target: T1, ITK; assay: ITK degradation in DERL-2 cells after pre-treatment with excess BMS509744; format: cell-based; parameters: endogenous in cells; host or cells: DERL-2 cells; conditions: 10 μM BMS509744 4 hours, then 100 nM compound 1 4 hours
Protocol: DERL-2 cells were pre-treated with or without 10 μM BMS509744 for 4 hours. After 4 hours, 100 nM compound 1 was added and cells were cultured for another 4 hours. After treatment, DERL-2 cells were lysed in Cell Lysis Buffer (Cell Signaling Technology®) on ice for 30 minutes and lysates were clarified by centrifugation. Western blot was performed as described in Example 7 to detect protein expression levels of ITK, IKZF1, IKZF3, and GAPDH.

DERL-2 cells = assay: Cell proliferation and cell death (PI, flow cytometry) of DERL-2 cells in culture with IL-2; format: cell-based
Protocol: DERL-2 cells supplemented in culture with IL-2 (FIG. 4A) or without IL-2 (FIG. 4B and FIG. 4C) were treated with compound 1 at the indicated doses. Cells were split at 1:5 ratio with fixed concentration of compound 1 every two days. Cell numbers and cell death were quantified by flow cytometry. Propidium iodide (PI) solution, a marker of cell death, was added to cells 5 minutes before flow cytometry detection. Percent PI-positive is used to quantify cell death.
DERL-2 cells in culture with IL-2 were treated with either 1 μM of compound 1, 1 μM BMS509744 or DMSO. Cells were split at 1:5 ratio and fresh compounds were added every two days. Cell numbers and cell death were quantified by flow cytometry. PI solution was added to cells 5 minutes before flow cytometry detection to indicate cell death.

ITK [3] = molecular target: T1, ITK; assay: ITK degradation in Hut78 cells (immunoblot); format: cell-based; parameters: endogenous in cells; conditions: 1 μM, 18 hours
Protocol: Hut78 cells (mycosis fungoides and Sezary syndrome) were treated with or without 1 μM of compound 1 for 18 hours. After treatment, Hut78 cells were lysed in Cell Lysis Buffer (Cell Signaling Technology®) on ice for 30 minutes and lysates were clarified by centrifugation. Immunoblotting for ITK was performed as described in Example 7 to evaluate changes in protein levels upon ITK degrader treatment.

Molt4 cells = assay: Proteome-wide profiling by TMT quantitative mass spectrometry; format: cell-based; conditions: 100 nM, 5 hours
Protocol: Proteome-wide profiling experiments were performed according to the reported protocol (B. Jiang et al., Angew. Chem. Int. Ed. Engl. 58:6321-6326 (2019)). Molt4 cells were treated with DMSO vehicle, 100 nM of compound 1 or 100 nM of compound 2 for 5 hours. Protein abundance measurements were made using TMT quantitative mass spectrometry and significant changes were assessed by moderated t-test as implemented in the limma package. The log2 fold change (log2 FC) is shown on the […] and negative log10 p value (−log10 p value) on the […] for three independent biological replicates of each treatment.

[4] = Mouse pharmacokinetic (PK) study; format: in vivo
Protocol: Standard PK studies were conducted using male C57BI/6 mice obtained from Scripps Fla. A single 2 mg/kg intravenous (IV) injection of compound 1 solution in 5/90 DMSO/10% Captisol® was evaluated. Plasma concentrations of compound 1 reported at each of the 8 time points (5 min, 15 min, 30 min, 1 h, 2 h, 4 h, 6 h and 8 h post dosing) are the average values from 3 test animals.

Hut78 cells = assay: Cell growth and cell death (PI, flow cytometry) of Hut78 cells; format: cell-based; conditions: Hut78 cells (independent of IL-2)
ITK [5] = molecular target: T1, ITK; assay: ITK degradation in DERL-2 cells with NAE inhibitor MLN4924 co-treatment; format: cell-based; parameters: endogenous in cells; host or cells: DERL-2 cells; conditions: 18 hours, combination with NAE inhibitor MLN4924
Protocol: DERL-2 cells were treated with compound 1, the NEDD8-activating enzyme (NAE) inhibitor MLN4924, or in combination for 18 hours (FIG. 3) at […]. After 18 hours, DERL-2 cells were lysed in Cell Lysis Buffer (Cell Signaling Technology®) on ice for 30 minutes and lysates were clarified by centrifugation. Western blot was performed as described in Example 7.

ITK [6] = molecular target: T1, ITK; assay: In vivo ITK degradation in Hut78 xenograft tumors; parameters: endogenous in cells; host or cells: Hut78 cells (in culture; or engrafted subcutaneously in NSG mice and purified from tumours); species or system mouse; conditions: female NSG mice, engrafted Hut78 cells, 50 mg/kg intraperitoneal, 3 doses every 8 hours, 4 hours after last dose
Protocol: In vivo degradation studies were conducted using female NSG mice. 6 eight-week-old NSG mice were injected subcutaneously with 1*10^7 of Hut78 cells. The injected mice were monitored for tumor formation twice a week until tumor growth reaches an average of 500 mm^3. Mice were then randomized into 3 mice per group, and treated with either vehicle (7.5% DMSO, 20% (2-hydroxypropyl)-β-cyclodextrin [HP-β-CD]) or compound 1 at 50 mg/kg via intraperitoneal injection for 3 doses (every 8 hours×3). Four hours after the last doing, mice were sacrificed to harvest tumors. Tumor tissues were cut into small pieces and dissociated into single cell suspension following the instruction of Tumor Dissociation Kit (Miltenyi Biotec, #130-095-929). Suspension cells were then depleted of mouse cells (Catalog #19849, STEMCELL technology). Purified tumor cells were lysed in Cell Lysis Buffer (Cell Signaling Technology®) on ice for 30 minutes and lysates were clarified by centrifugation. Immunoblotting for ITK was performed as described in Example 7 to evaluate protein level changes.

[7] = DERL-2 cells supplemented with IL-2
[8] = mouse, male C57BI/6 mice, single 2 mg/kg IV, plasma

concentration at which ITK degradation is evident (ITK [1]; 18 hours): 1 nM
concentration of maximal ITK degradation (ITK [1]; 18 hours): 1000 nM
ITK degradation induced by compound 1 after pre-treatment with excess BMS509744 (ITK [2]): rescued the degradation
degradation of ITK protein (immunoblot) (ITK [3]): pronounced degradation of ITK protein
AUC % Extrap ([4]; male C57BI/6 mice, single 2 mg/kg IV, plasma): 5.14 % Extrap
AUC(0-t) [4, 8]: 1370 ng·h/mL and 1.34 µM·h
Cmax [4, 8]: 1710 ng/mL and 1.67 µM
Tmax [4, 8]: 4.8 min
half-life [4, 8]: 2.18 h
AUC(0-inf) ([4]; mouse, male C57BI/6 mice, single 2 mg/kg IV, plasma, read-out: AUCINF—obs (converted)): 1440 ng·h/mL
clearance ([4]; mouse, male C57BI/6 mice, single 2 mg/kg IV, plasma, read-out: Cl—obs): 25.2 mL/min/kg
MRT inf ([4]; mouse, male C57BI/6 mice, single 2 mg/kg IV, plasma, read-out: MRTINF—obs): 1.96 h
Vd ([4]; mouse, male C57BI/6 mice, single 2 mg/kg IV, plasma, read-out: VSS—obs): 2.94 L/kg
ITK degradation induced by compound 1 on treatment with MLN4924 (ITK [5]): rescued the degradation
SMILES: COc1cc(C)c(Sc2cnc(NC(=O)c3ccc(N4CCN(CCCCCCCNC(=O)COc5cccc6c5C(=O)N(C5CCC(=O)NC5=O)C6=O)CC4)cc3)s2)cc1C(=O)N1CCN(C(C)=O)CC1 (stereo not drawn) [compound 1, N-(5-((5-(4-acetylpiperazine-1-carbonyl)-4-methoxy-2-methylphenyl)thio)thiazol-2-yl)-4-(4-(7-(2-((2-(2,6-dioxopiperidin-3-yl)-1,3-dioxoisoindolin-4-yl)oxy)acetamido)heptyl)piperazin-1-yl)benzamide]
degradation of ITK protein (immunoblot) (ITK [1]; 4 hours or 18 hours): rapid and pronounced degradation of ITK protein
degradation of ITK protein (immunoblot) (ITK [1]; 18 hours): rapid and pronounced degradation of ITK protein
cell death (percent PI-positive) compared with DMSO (DERL-2 cells; [7]): induced cell death
inhibition of cell proliferation compared with DMSO (DERL-2 cells; [7]): > 10 fold
cell proliferation and cell death of TCL cells (DERL-2 cells; DERL-2 cells with IL-2, 1 μM): blocked cell proliferation and induced cell death
proteins downregulated (relative protein abundance) (Molt4 cells): downregulated ITK, IKZF1, IKZF3, ZFP91, RNF166, ZNF653 and ZNF692
in vivo metabolic stability, exposure and clearance rate (overall assessment) ([4]; mouse PK, 2 mg/kg IV): good in vivo metabolic stability, exposure and clearance rate
cell growth and cell death (Hut78 cells): did not inhibit cell growth or induce cell death
degradation of ITK protein in vivo (immunoblot of purified tumor cells) (ITK [6]): significant degradation of ITK protein in vivo

concentration at which ITK degradation is evident (ITK [1]; 18 hours): 100 nM
concentration of maximal ITK degradation (ITK [1]; 18 hours): 1000 nM
SMILES: COc1cc(C)c(Sc2cnc(NC(=O)c3ccc(N4CCN(CCCCCCCNC(=O)COc5cc6c7c(cccc7c5)C(=O)N(C5CCC(=O)NC5=O)C6=O)CC4)cc3)s2)cc1C(=O)N1CCN(C(C)=O)CC1 (stereo not drawn) [compound 2, N-(5-((5-(4-acetylpiperazine-1-carbonyl)-4-methoxy-2-methylphenyl)thio)thiazol-2-yl)-4-(4-(7-(2-((2-(2,6-dioxopiperidin-3-yl)-1,3-dioxo-2,3-dihydro-1H-benzo[de]isoquinolin-5-yl)oxy)acetamido)heptyl)piperazin-1-yl)benzamide]
degradation of ITK protein (immunoblot) (ITK [1]; 18 hours): rapid and pronounced degradation of ITK protein
proteins downregulated (relative protein abundance) (Molt4 cells): selectively downregulated ITK

From US12678508B2, “Compounds for targeted degradation of interleukin-2-inducible T-cell kinase and methods of use” (DANA-FARBER CANCER INSTITUTE, INC., priority 2020, dated 2026)
